According to ChEMBL document CHEMBL1201862, “PubChem BioAssay data set” (2004):
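Briefly, cells in 96-well plates were exposed to five compound concentrations for 48 h, and endpoints were estimated by linear interpolation. GI50 = concentration required for 50% inhibition of growth.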 The source made the active and inactive calls. Cut-off read from the data, not from the text of the source: active = GI50 up to about 1.1 µM and inactive = higher. *1 amine or outer side, *2 acyl side, *3 side chain or, on linkers, in order; H or OH if unused. Where a SMILES comes first, the peptide text is derived from it. [ ]: non-standard residue; d: D form. The star is where a group is joined. X31 = CC(=O)N(C)SCC(N[*:1])C(=O)[*:2]; Fmoc = O=C(OCC1c2ccccc2-c2ccccc21)*; For = O=C*

Legend:
Experiment in all cases: growth of human tumour cells (NCI), 48 h
SNB-75 = test system: SNB-75
SF-268 = test system: SF-268
SN12C = test system: SN12C
BT-549 = test system: BT-549
UO-31 = test system: UO-31
HL-60 = test system: HL-60
A549 = test system: A549
Malme-3M = test system: Malme-3M
MDA-MB-435 = test system: MDA-MB-435
LOX IMVI = test system: LOX IMVI
NCI-H460 = test system: NCI-H460
HOP-92 = test system: HOP-92
CAKI-1 = test system: CAKI-1
PC-3 = test system: PC-3
OVCAR-5 = test system: OVCAR-5
SW-620 = test system: SW-620
U-251 = test system: U-251
K562 = test system: K562
SK-MEL-2 = test system: SK-MEL-2
MOLT-4 = test system: MOLT-4

| Compound | GI50 (SNB-75) | GI50 (SF-268) | GI50 (SN12C) | GI50 (BT-549) | GI50 (UO-31) | GI50 (HL-60) | GI50 (A549) | GI50 (Malme-3M) | GI50 (MDA-MB-435) | GI50 (LOX IMVI) | GI50 (NCI-H460) | GI50 (HOP-92) | GI50 (CAKI-1) | GI50 (PC-3) | GI50 (OVCAR-5) | GI50 (SW-620) | GI50 (U-251) | GI50 (K562) | GI50 (SK-MEL-2) | GI50 (MOLT-4) |
| --- | --- | --- | --- | --- | --- | --- | --- | --- | --- | --- | --- | --- | --- | --- | --- | --- | --- | --- | --- | --- |
| CC(=O)O[C@@H]1C[C@@]23C[C@@]24CC[C@H](OC2OCC(O)C(O)C2O)C(C)(C)[C@@H]4CC=C3[C@]2(C)C[C@@H]3OC4(C[C@@H](C)[C@@H]3[C@@]12C)OC(O)[C@@]1(C)O[C@@H]41 (stereo not given in full) | 25 µM (inactive) | 58.7 µM (inactive) | 31.5 µM (inactive) | 27.9 µM (inactive) | 41.8 µM (inactive) | 7.73 µM (inactive) | 48.9 µM (inactive) | 33.2 µM (inactive) | 32.4 µM (inactive) | 23.4 µM (inactive) | 25.3 µM (inactive) | 54.3 µM (inactive) | 46.1 µM (inactive) | 22.9 µM (inactive) | 47.5 µM (inactive) | 36.5 µM (inactive) | 30.7 µM (inactive) | 23.8 µM (inactive) | 19.7 µM (inactive) | – |
| O=c1oc2ccccc2c(-c2ccc(O)cc2)c1Oc1ccccc1 | > 46.8 µM (inactive) | 8.57 µM (inactive) | 21.5 µM (inactive) | 3.33 µM (inactive) | 7.73 µM (inactive) | 54 µM (inactive) | 22.1 µM (inactive) | 2.58 µM (inactive) | 22.1 µM (inactive) | 9.93 µM (inactive) | 6.85 µM (inactive) | 10.2 µM (inactive) | 24.5 µM (inactive) | 8.49 µM (inactive) | 18.8 µM (inactive) | 37.8 µM (inactive) | 8.51 µM (inactive) | 34.6 µM (inactive) | 7.1 µM (inactive) | 28.8 µM (inactive) |
| Cc1cc(CN2CCCCC2)c(O)c(CN2CCCCC2)c1 | > 100 µM (inactive) | > 100 µM (inactive) | > 100 µM (inactive) | > 100 µM (inactive) | > 100 µM (inactive) | > 100 µM (inactive) | > 100 µM (inactive) | > 100 µM (inactive) | > 100 µM (inactive) | > 100 µM (inactive) | > 100 µM (inactive) | > 100 µM (inactive) | > 100 µM (inactive) | > 100 µM (inactive) | > 100 µM (inactive) | > 100 µM (inactive) | > 100 µM (inactive) | > 100 µM (inactive) | > 100 µM (inactive) | – |
| O=C1NC(NCc2ccc(F)cc2)=N/C1=C\c1ccccc1Cl | 7.4 µM (inactive) | 24.2 µM (inactive) | 14.8 µM (inactive) | 23.7 µM (inactive) | – | 13.4 µM (inactive) | 17.2 µM (inactive) | 16.8 µM (inactive) | 17.9 µM (inactive) | 14.7 µM (inactive) | 25 µM (inactive) | 6.97 µM (inactive) | 23.9 µM (inactive) | 15.9 µM (inactive) | 16.8 µM (inactive) | 13.5 µM (inactive) | 14.7 µM (inactive) | 11.9 µM (inactive) | 15.8 µM (inactive) | 12.9 µM (inactive) |
| CS(=O)(=O)Nc1ccc2ccccc2c1 | > 100 µM (inactive) | > 100 µM (inactive) | > 100 µM (inactive) | 30.4 µM (inactive) | 21.1 µM (inactive) | > 100 µM (inactive) | > 100 µM (inactive) | > 100 µM (inactive) | > 100 µM (inactive) | > 100 µM (inactive) | > 100 µM (inactive) | 87.7 µM (inactive) | > 100 µM (inactive) | > 100 µM (inactive) | > 100 µM (inactive) | > 100 µM (inactive) | > 100 µM (inactive) | > 100 µM (inactive) | > 100 µM (inactive) | > 100 µM (inactive) |
| O=c1c2ccccc2c2ccccc2c(=O)n1Cc1ccc2c(c1)OCO2 | 42.7 µM (inactive) | 59.7 µM (inactive) | 37.5 µM (inactive) | 20.9 µM (inactive) | 49.5 µM (inactive) | 11.4 µM (inactive) | 32.1 µM (inactive) | 67.9 µM (inactive) | 6.17 µM (inactive) | 40 µM (inactive) | 24.6 µM (inactive) | > 94.8 µM (inactive) | 69.7 µM (inactive) | 42.8 µM (inactive) | 34 µM (inactive) | 33.3 µM (inactive) | > 62.2 µM (inactive) | 7.45 µM (inactive) | 39.7 µM (inactive) | 12.9 µM (inactive) |
| OC(C1CCCC1=N/N=C1/CCCC1C(O)(C(F)(F)Cl)C(F)(F)Cl)(C(F)(F)Cl)C(F)(F)Cl (stereo not given) | > 10 µM (inactive) | > 10 µM (inactive) | > 10 µM (inactive) | > 10 µM (inactive) | – | > 10 µM (inactive) | > 10 µM (inactive) | > 10 µM (inactive) | > 10 µM (inactive) | > 10 µM (inactive) | > 10 µM (inactive) | > 10 µM (inactive) | > 10 µM (inactive) | > 10 µM (inactive) | > 10 µM (inactive) | > 10 µM (inactive) | > 10 µM (inactive) | > 10 µM (inactive) | > 10 µM (inactive) | > 10 µM (inactive) |
| S=C(NC/C(Br)=C/Br)Nc1cccc2ccccc12 | 33.5 µM (inactive) | – | 24.4 µM (inactive) | 33.3 µM (inactive) | 20.9 µM (inactive) | 12.9 µM (inactive) | 34.2 µM (inactive) | 28.9 µM (inactive) | 34 µM (inactive) | 24.8 µM (inactive) | – | 20.2 µM (inactive) | 29.2 µM (inactive) | 23.1 µM (inactive) | 33.6 µM (inactive) | – | 30.3 µM (inactive) | 11.7 µM (inactive) | 20.4 µM (inactive) | 17.8 µM (inactive) |
| Cc1nn(-c2ccccc2)c2c1N=C(C(=O)O)CC(c1ccccc1)=N2 | > 10 µM (inactive) | > 10 µM (inactive) | > 10 µM (inactive) | > 10 µM (inactive) | – | > 10 µM (inactive) | > 10 µM (inactive) | > 10 µM (inactive) | > 10 µM (inactive) | > 10 µM (inactive) | – | > 10 µM (inactive) | > 10 µM (inactive) | > 10 µM (inactive) | – | > 10 µM (inactive) | > 10 µM (inactive) | > 10 µM (inactive) | – | > 10 µM (inactive) |
| COC(=O)C1(Cc2ccc3c(c2)CCC3)Cc2ccc3c(c2C1O)CCC3 (stereo not given) | 32.2 µM (inactive) | 21 µM (inactive) | 15 µM (inactive) | 14.9 µM (inactive) | 10.7 µM (inactive) | 23.1 µM (inactive) | 14.1 µM (inactive) | 12.2 µM (inactive) | 13 µM (inactive) | 12.6 µM (inactive) | 21 µM (inactive) | 10.1 µM (inactive) | 14.2 µM (inactive) | 15.1 µM (inactive) | – | 14.5 µM (inactive) | 15.8 µM (inactive) | > 100 µM (inactive) | – | > 100 µM (inactive) |
| COC(=O)Nc1nc2cc(S(=O)(=O)Nc3ccccn3)ccc2[nH]1 | 22.6 µM (inactive) | 72.6 µM (inactive) | 92 µM (inactive) | 30.9 µM (inactive) | 76 µM (inactive) | 10.8 µM (inactive) | 80.7 µM (inactive) | 58.5 µM (inactive) | 14.1 µM (inactive) | 51.8 µM (inactive) | 34.6 µM (inactive) | 30.5 µM (inactive) | 47 µM (inactive) | 65.8 µM (inactive) | > 100 µM (inactive) | 17.1 µM (inactive) | 67.5 µM (inactive) | 25.7 µM (inactive) | > 100 µM (inactive) | 25.5 µM (inactive) |
| N=C(N)NS(=O)(=O)c1ccc(NNc2c3ccccc3nc3ccccc23)cc1 | 16.5 µM (inactive) | 10.4 µM (inactive) | 4.23 µM (inactive) | 1.18 µM (inactive) | 13.6 µM (inactive) | 4.49 µM (inactive) | 9.1 µM (inactive) | 17.3 µM (inactive) | 16.2 µM (inactive) | 3.59 µM (inactive) | 2.7 µM (inactive) | 2.96 µM (inactive) | 15.8 µM (inactive) | 8.75 µM (inactive) | 17.6 µM (inactive) | 9.31 µM (inactive) | 5.97 µM (inactive) | 6.04 µM (inactive) | 18.2 µM (inactive) | 0.472 µM (active) |
| O=C(OCc1ccccc1)N1CCNCCNCCN(C(=O)OCc2ccccc2)CCNCC1 | 21.5 µM (inactive) | – | 47.4 µM (inactive) | 60.7 µM (inactive) | 12.7 µM (inactive) | 8.2 µM (inactive) | 63.4 µM (inactive) | 20.1 µM (inactive) | 16.1 µM (inactive) | 16.3 µM (inactive) | 21.2 µM (inactive) | 20.6 µM (inactive) | 20 µM (inactive) | 41.6 µM (inactive) | 33.3 µM (inactive) | 17.1 µM (inactive) | 17.9 µM (inactive) | 13 µM (inactive) | 17.5 µM (inactive) | 16.7 µM (inactive) |
| CC(=O)N(C)SCC(NC(=O)C(Cc1ccccc1)NC(=O)OCC1c2ccccc2-c2ccccc21)C(=O)NC(Cc1ccccc1)C(=O)NC(Cc1cn(C=O)c2ccccc12)C(=O)NC(CCCCNC(=O)OCC1c2ccccc2-c2ccccc21)C(=O)NC(C(=O)NC(CSN(C)C(C)=O)C(=O)NC(C(N)=O)C(C)O)C(C)O (stereo not given) (Fmoc-F[X31]FW(For)K(Fmoc)T[X31]T-NH2; configuration not given here) | 33.1 µM (inactive) | > 100 µM (inactive) | > 100 µM (inactive) | > 100 µM (inactive) | 16.2 µM (inactive) | > 100 µM (inactive) | > 100 µM (inactive) | > 100 µM (inactive) | 94.4 µM (inactive) | > 100 µM (inactive) | 33.5 µM (inactive) | 14.5 µM (inactive) | – | 97.1 µM (inactive) | > 100 µM (inactive) | > 100 µM (inactive) | > 100 µM (inactive) | > 100 µM (inactive) | 40.6 µM (inactive) | > 100 µM (inactive) |
